From ChEMBL document CHEMBL5500407, “Designing Chromane Derivatives as α2A-Adrenoceptor Selective Agonists via Conformation Constraint” (J Med Chem, 2024)
pEC50, pKi: −log10 of the molar value. Calls of active or inactive are those of the source. No cut-off for these calls is given here.

What was measured:
[1] = target: T1, Alpha-2A adrenergic receptor (Homo sapiens, UniProt P08913)
T1 sequence (P08913 whole entry): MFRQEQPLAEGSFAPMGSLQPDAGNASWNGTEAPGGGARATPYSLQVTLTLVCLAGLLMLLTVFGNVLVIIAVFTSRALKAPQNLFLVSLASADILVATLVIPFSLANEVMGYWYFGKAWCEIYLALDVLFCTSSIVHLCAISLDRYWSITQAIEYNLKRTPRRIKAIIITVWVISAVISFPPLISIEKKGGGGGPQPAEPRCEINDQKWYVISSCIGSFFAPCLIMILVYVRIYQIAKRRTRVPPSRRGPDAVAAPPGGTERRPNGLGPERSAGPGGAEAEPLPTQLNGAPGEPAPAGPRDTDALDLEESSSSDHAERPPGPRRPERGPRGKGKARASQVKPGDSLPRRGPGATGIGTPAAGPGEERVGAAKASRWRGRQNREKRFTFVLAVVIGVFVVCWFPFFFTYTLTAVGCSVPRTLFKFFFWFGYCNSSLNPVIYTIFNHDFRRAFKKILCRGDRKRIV
Description: Agonist activity at alpha2A-adrenoceptor (unknown origin) expressed in CHO-alpha2-AR-PKAcatEGFP cells assessed as intracellular cAMP concentration by measuring PKA translocation after 15 mins incubation by PKA redistribution assay

Mus musculus [2] = test: Hypnotic activity in ip dosed C57BL/6 mouse assessed as increase in immobility time; format: functional, organism-based
HEK293T [3] = test: Agonist activity at alpha2A-adrenoceptor F427A mutant (unknown origin) expressed in HEK293T cells co-expressing pGloSensor-22F cAMP plasmid assessed as at 1 to 100 uM measured after 10 mins incubation by multiplate reader; format: cell-based; settings: Homo sapiens, dose 1-100 µM
Mus musculus [4] = test: Hypnotic activity in ip dosed C57BL/6 mouse assessed as increase in loss of righting reflex (LORR)
[5] = Selectivity index, ratio of EC50 for alpha2A-adrenoceptor (unknown origin) to EC50 for alpha2C-adrenoceptor (unknown origin)
[6] = Selectivity index, ratio of EC50 for alpha2A-adrenoceptor (unknown origin) to EC50 for alpha1A-adrenoceptor (unknown origin)
[7] = target: T2, Alpha-2C adrenergic receptor (Homo sapiens, UniProt P18825); test: Agonist activity at alpha2C-adrenoceptor (unknown origin) expressed in CHO-alpha2C-PKAcatEGFP cells assessed as increase in intracellular calcium level measured after 15 mins incubation by Micro automated microscopy; format: functional, cell-based
T2 sequence (P18825 whole entry): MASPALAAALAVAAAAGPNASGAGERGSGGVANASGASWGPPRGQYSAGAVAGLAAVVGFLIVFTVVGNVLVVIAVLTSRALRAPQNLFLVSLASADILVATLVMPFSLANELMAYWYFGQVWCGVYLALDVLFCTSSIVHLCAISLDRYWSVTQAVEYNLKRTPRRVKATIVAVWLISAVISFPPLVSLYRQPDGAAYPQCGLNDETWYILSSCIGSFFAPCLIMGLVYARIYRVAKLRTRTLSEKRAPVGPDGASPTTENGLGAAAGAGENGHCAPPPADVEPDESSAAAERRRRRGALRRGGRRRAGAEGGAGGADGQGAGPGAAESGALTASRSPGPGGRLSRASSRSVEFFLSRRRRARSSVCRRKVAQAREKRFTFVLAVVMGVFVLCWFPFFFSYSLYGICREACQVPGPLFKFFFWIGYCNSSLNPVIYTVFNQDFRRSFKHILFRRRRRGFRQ

[8] = target: T3, Alpha-2B adrenergic receptor (Homo sapiens, UniProt P18089); test: Agonist activity at alpha2B-adrenoceptor (unknown origin) expressed in U2OS-EGFP-NFAT2-alpha2B-AR cells assessed as increase in intracellular calcium level measured after 15 mins incubation by Micro automated microscopy; format: functional, cell-based
T3 sequence (P18089 whole entry): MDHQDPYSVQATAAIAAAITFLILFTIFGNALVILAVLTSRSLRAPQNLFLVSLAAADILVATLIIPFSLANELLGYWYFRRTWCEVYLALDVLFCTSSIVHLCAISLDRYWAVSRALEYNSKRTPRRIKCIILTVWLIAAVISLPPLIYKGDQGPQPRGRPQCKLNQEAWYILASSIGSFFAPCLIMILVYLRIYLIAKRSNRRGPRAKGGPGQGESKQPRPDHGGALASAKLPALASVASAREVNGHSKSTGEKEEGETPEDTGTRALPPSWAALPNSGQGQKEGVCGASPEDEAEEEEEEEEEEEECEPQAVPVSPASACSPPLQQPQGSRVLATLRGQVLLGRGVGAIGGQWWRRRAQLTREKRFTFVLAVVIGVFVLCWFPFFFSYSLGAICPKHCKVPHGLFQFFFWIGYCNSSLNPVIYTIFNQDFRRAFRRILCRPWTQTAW

[9] = target: T4, Alpha-1A adrenergic receptor (Homo sapiens, UniProt P35348); test: Agonist activity at alpha1A-adrenoceptor (unknown origin) expressed in HEK293T cells assessed as fluorescence intensity measured after 30 mins by IP-one homogeneous time-resolved fluorescence assay; format: functional, cell-based
T4 sequence (P35348 whole entry): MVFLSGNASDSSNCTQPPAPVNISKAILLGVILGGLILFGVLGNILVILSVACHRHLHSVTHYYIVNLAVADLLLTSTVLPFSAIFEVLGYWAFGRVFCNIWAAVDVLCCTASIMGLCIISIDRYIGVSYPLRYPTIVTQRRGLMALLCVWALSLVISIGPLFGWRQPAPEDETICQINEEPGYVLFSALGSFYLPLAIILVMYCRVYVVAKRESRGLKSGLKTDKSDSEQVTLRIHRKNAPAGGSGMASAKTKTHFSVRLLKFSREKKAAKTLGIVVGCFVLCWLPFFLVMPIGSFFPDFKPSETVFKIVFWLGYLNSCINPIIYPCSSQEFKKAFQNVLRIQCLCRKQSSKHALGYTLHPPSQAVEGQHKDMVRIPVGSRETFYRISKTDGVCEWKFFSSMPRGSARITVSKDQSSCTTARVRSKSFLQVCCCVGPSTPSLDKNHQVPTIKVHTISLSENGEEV

[10] = Selectivity index, ratio of EC50 for alpha2A-adrenoceptor (unknown origin) to EC50 for alpha2B-adrenoceptor (unknown origin)
HEK293T [11] = test: Agonist activity at alpha2A-adrenoceptor D128A mutant (unknown origin) expressed in HEK293T cells co-expressing pGloSensor-22F cAMP plasmid assessed as at 0.000001 to 100 uM measured after 10 mins incubation by multiplate reader; format: cell-based; settings: Homo sapiens, dose lower 1e-06 µM, dose upper 100.0 µM
[12] = Metabolic stability in mouse liver microsomes assessed as elimination half life; format: ADME, Microsome
HEK293T [13] = test: Agonist activity at alpha2A-adrenoceptor Y409A mutant (unknown origin) expressed in HEK293T cells co-expressing pGloSensor-22F cAMP plasmid assessed as at 0.000001 to 100 uM measured after 10 mins incubation by multiplate reader; format: cell-based; settings: Homo sapiens, dose lower 1e-06 µM, dose upper 100.0 µM
[14] = Metabolic stability in mouse liver microsomes assessed as intrinsic clearance; format: ADME, Microsome; settings: read-out: CLH
[15] = target: T5, Alpha-1D adrenergic receptor (Homo sapiens, UniProt P25100); test: Binding affinity to human alpha1D-adrenoceptor
T5 sequence (P25100 whole entry): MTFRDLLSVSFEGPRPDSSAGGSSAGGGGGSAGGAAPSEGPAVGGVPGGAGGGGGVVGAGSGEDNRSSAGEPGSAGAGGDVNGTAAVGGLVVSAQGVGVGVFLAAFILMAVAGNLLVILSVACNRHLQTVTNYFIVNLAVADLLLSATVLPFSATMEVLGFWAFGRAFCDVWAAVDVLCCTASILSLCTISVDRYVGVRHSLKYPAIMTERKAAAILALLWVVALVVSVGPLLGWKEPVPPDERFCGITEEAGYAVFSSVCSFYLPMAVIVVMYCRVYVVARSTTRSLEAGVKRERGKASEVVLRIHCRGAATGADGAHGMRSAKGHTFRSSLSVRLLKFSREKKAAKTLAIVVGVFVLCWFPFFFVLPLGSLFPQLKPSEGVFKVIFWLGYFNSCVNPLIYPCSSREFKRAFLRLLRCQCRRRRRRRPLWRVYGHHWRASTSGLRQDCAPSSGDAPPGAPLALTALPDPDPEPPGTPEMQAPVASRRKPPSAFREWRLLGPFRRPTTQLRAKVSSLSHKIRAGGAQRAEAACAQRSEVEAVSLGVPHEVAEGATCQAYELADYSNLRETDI

[16] = target: T6, Alpha-1B adrenergic receptor (Homo sapiens, UniProt P35368); test: Binding affinity to human alpha1B-adrenoceptor
T6 sequence (P35368 whole entry): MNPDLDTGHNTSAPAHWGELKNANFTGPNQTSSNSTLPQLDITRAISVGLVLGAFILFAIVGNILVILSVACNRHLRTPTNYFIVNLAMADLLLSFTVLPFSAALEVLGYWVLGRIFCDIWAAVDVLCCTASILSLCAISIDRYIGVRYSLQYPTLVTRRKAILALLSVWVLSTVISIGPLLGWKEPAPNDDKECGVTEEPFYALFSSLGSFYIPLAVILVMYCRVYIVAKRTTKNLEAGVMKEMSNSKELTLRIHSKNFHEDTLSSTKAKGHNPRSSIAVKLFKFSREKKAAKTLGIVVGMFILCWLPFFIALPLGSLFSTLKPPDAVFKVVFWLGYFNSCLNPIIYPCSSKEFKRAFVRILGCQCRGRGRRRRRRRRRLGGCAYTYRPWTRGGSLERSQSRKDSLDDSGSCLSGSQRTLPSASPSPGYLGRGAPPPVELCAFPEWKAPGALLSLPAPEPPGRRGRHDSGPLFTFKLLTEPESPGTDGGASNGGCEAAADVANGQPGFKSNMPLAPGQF

[17] = target: T1, Alpha-2A adrenergic receptor; remark: listed apart in the source
Description: Binding affinity to human alpha2A-adrenoceptor

[18] = target: T4, Alpha-1A adrenergic receptor
Description: Binding affinity to human alpha1A-adrenoceptor

[19] = target: T3, Alpha-2B adrenergic receptor
Description: Binding affinity to human alpha2B-adrenoceptor

[20] = target: T2, Alpha-2C adrenergic receptor
Description: Binding affinity to human alpha2C-adrenoceptor

Clc1ccc2c(c1)C(c1c[nH]cn1)CCO2 (configuration not stated)
pEC50 [1]: 7.19

Brc1ccc2c(c1)OCC=C2c1c[nH]cn1
pEC50 [1]: < 5.30

Brc1ccc2c(c1)C(c1c[nH]cn1)=CCO2
pEC50 [1]: < 5.30

Cc1cccc([C@H](C)c2c[nH]cn2)c1C [DEXMEDETOMIDINE]
Activity (Mus musculus [2]): Dose-Dependent Effect
Activity (HEK293T [3]): inactive
ED50 (Mus musculus [4]): 0.11 mg/kg

Cc1cccc2c1OCC=C2c1nc[nH]c1C
pEC50 [1]: < 5.30

Clc1cccc2c1OCC=C2c1cnc[nH]1
pEC50 [1]: 7.89

Brc1ccc2c(c1)C(c1c[nH]cn1)CCO2 (configuration not stated)
pEC50 [1]: 6.35

Fc1cc(Br)c2c(c1)C(c1c[nH]cn1)=CCO2
Selectivity Index [5]: 24
Selectivity Index [6]: 42
pEC50 [7]: 7.55
pEC50 [8]: 7.08
pEC50 [9]: 7.32
Selectivity Index [10]: 73
pEC50 [1]: 8.94

Brc1cccc2c1OCC=C2c1c[nH]cn1
Activity (HEK293T [11]): inactive
Activity (Mus musculus [2]): Dose-Dependent Effect
Selectivity Index [5]: 48
Selectivity Index [6]: 41
half-life [12]: 5.56 min
pEC50 [7]: 7.43
pEC50 [8]: 6.73
Activity (HEK293T [3]): inactive
pEC50 [9]: 7.49
Selectivity Index [10]: 238
ED50 (Mus musculus [4]): 1.54 mg/kg
Activity (HEK293T [13]): inactive
microsomal CLint [14]: 249 µL/min/mg
pEC50 [1]: 9.11

Fc1ccc2c(c1)OCCC2c1cnc[nH]1 (configuration not stated)
pEC50 [1]: 7.09

Clc1cccc(Cl)c1N=C1NCCN1 [CLONIDINE]
pKi [15]: 5.59
pKi [16]: 5.13

Fc1cccc2c1OCCC2c1c[nH]cn1 (configuration not stated)
pEC50 [1]: 7.24

Cc1cccc2c1OCC=C2c1c[nH]cn1
Selectivity Index [5]: 24
Selectivity Index [6]: 14
half-life [12]: 4.87 min
pEC50 [7]: 7.30
pEC50 [8]: 7.00
pEC50 [9]: 7.53
Selectivity Index [10]: 47
microsomal CLint [14]: 284 µL/min/mg
pEC50 [1]: 8.68

Clc1cccc2c1OCCC2c1c[nH]cn1 (configuration not stated)
Selectivity Index [5]: 15
Selectivity Index [6]: 1.7
pEC50 [7]: 7.45
pEC50 [8]: 7.62
pEC50 [9]: 8.39
Selectivity Index [10]: 10
pEC50 [1]: 8.63

NC1=N[C@]2(CCc3cccc(Cl)c3C2)OC1
pKi [15]: 7.60
pKi [17]: 9.50
pKi [18]: 8.40
pKi [19]: 9.60
pKi [16]: 7.70
pKi [20]: 9.50

Fc1cccc2c1OCC=C2c1c[nH]cn1
pEC50 [1]: 7.11
